Patent US20180044428A1, “COMPOSITIONS AND METHODS FOR ENHANCING THE EFFICACY OF CANCER THERAPY” (PROVIDENCE HEALTH & SERVICES-OREGON, priority 2015, published 2018)

Assays:
Assay type in all cases: in vivo, C57BL/6 mice
[1] = test system: peripheral blood immune cells; assay: Quantitative flow cytometry of peripheral blood after immunochemotherapy
Description: For analysis of tumor-infiltrating cells, the tumor was dissected into approximately 2 mm fragments followed by agitation in lmg/mL collagenase (Invitrogen), 100μg/mL hyaluronidase (Sigma, St Louis, Mo.), and 20 mg/mL DNase (Sigma) in PBS for 1 hour at room temperature. The digest was filtered through 100 μm nylon mesh to remove macroscopic debris. For flow cytometry analysis of infiltrating cells, cell suspensions were washed and stained with directly conjugated fluorescent antibodies. For analysis of lymph nodes, lymph nodes were crushed, washed and surface stained, then cells were washed and fixed using a T regulatory cell staining kit (EBioscience) and stained for transcription factors. To measure cytokine responses, lymph node cells were plated to wells pre-coated with 1 μg/ml anti-CD3 for 4 hours in the presence of Golgiplug (BD biosciences). Cells were then surface stained, washed and fixed using a T regulatory cell staining kit (EBioscience) before intracellular cytokine staining. For analysis of cell numbers in blood, whole blood was harvested into ethylenediaminetetraacetic acid (EDTA) tubes from live mice via the saphenous vein, and 5-25 μl of fresh blood was stained directly with fluorescent antibody cocktails (see, Crittenden et al., PLoS One, 2013. 8(7): e69527). A known number of AccuCheck fluorescent beads (Invitrogen) were added to each sample, then red blood cells were lysed with Cal-Lyse whole blood lysing solution (Invitrogen), and samples analyzed on a BD LSRII flow cytometer. The absolute number of cells in the sample was determined based on comparing cellular events to bead events (cells/μl).

Panc02 tumors = assay: Panc02 pancreatic adenocarcinoma model, immunochemotherapy (tumor area, survival); details: gemcitabine 100 mg/kg i.p. twice weekly alone
Description: The Panc02 murine pancreatic adenocarcinoma cell line (Priebe et al., 1992, Cancer Chemother Pharmacol; 29:485-9. C57BL/6) was kindly provided by Dr. Woo (Mount Sinai School of Medicine, N.Y.). 6-8 week old C57BL/6 mice were obtained from Charles River Laboratories (Wilmington, Mass.) for use in these experiments. All animal protocols were approved by the EACRI IACUC (Animal Welfare Assurance No. A3913-01).
Mice bearing 10-14 day old tumors were treated with anti-OX40 (OX86, 250 μg intraperitoneally, BioXcell, West Lebanon, N.H.), anti-CTLA4 (9D9, 250 μg intraperitoneally, BioXcell) or the combination. Chemotherapy consisted of 100 mg/kg Gemcitabine (Eli Lilly and Co., Indianapolis, Ind.) intraperitoneally twice per week for 2 or 3 weeks. Anti-interleukin-4 (Anti-IL-4, 11B11, 100 μg intraperitoneally, BioXcell) was delivered intraperitoneally twice per week for 3 weeks.
Data were analyzed and graphed using Prism (GraphPad Software, La Jolla, Calif.). Individual data sets were compared using Student's T-test. Analysis across multiple groups was performed using ANOVA with individual groups assessed using Tukey's comparison. Kaplan Meier survival curves were compared using a log-rank test.

F4/80+ macrophages = assay: Immunohistology for F4/80+ macrophages in Panc02 tumors; details: gemcitabine, tumors harvested after one week of treatment
Description: For immunohistology, tumors were fixed overnight in Z7 zinc based fixative (Lykidis et al., 2007, Nucleic acids research; 35:e85). Tissue was then dehydrated through graded alcohol to xylene, incubated in molten paraffin, and then buried in paraffin. Sections (5 μm) were cut and mounted for analysis. Tissue sections were boiled in ethylenediaminetetraacetic acid (EDTA) buffer as appropriate for antigen retrieval. Primary antibody binding was visualized with AlexaFluor 488 conjugated secondary antibodies (Molecular Probes, Eugene, Oreg.) and mounted with DAPI (Invitrogen) to stain nuclear material. Images were acquired using: a Nikon TE2000S epifluorescence microscope, Nikon DsFi1 digital camera and Nikon NIS-Elements imaging software. Multiple images were taken at high resolution across the tumor and digitally merged to make a single margin-to-margin overview of the tumor.

[2] = following one cycle of chemoimmunotherapy

Q: `Nc1ccn([C@@H]2O[C@H](CO)[C@@H](O)C2(F)F)c(=O)n1` [gemcitabine] was tested. Which “T cell populations in peripheral blood” value ([1]; following chemotherapy) did it give?
A: The value was “not decreased”.

Q: What about the “CD11b+Gr1hi neutrophils in the peripheral blood” value [1, 2] of the same molecule?
A: The value was “significantly decreased”.

Q: And the “CD11b+Ly6C+Ly6Glo immature myeloid cells in the peripheral blood” value [1, 2]?
A: Its value is “significantly decreased”.

Q: What about the survival (Panc02 tumors) of the same molecule?
A: The survival was “significantly extended survival”.

Q: What about the tumor growth (Panc02 tumors) of the same molecule?
A: The tumor growth was “transient tumor delay”.

Q: And the “macrophage infiltration throughout the tumor” value (F4/80+ macrophages)?
A: Its value is “increased”.
